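A five-concentration, 48-hour dose response in 96-well plates underlies each endpoint, interpolated linearly between surrounding concentrations. GI50: concentration for 50% inhibition of growth. Definition used: TGI = concentration required for complete inhibition of growth.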
Experiments:
Experiment in all cases: NCI anticancer screen, dose series, 48 h
786-0 renal = system: 786-0 renal
A498 renal = system: A498 renal
A549 NSCLC = system: A549 NSCLC
ACHN renal = system: ACHN renal
BT-549 breast = system: BT-549 breast
CAKI-1 renal = system: CAKI-1 renal
CCRF-CEM leukemia = system: CCRF-CEM leukemia
COLO 205 colon = system: COLO 205 colon
DU-145 prostate = system: DU-145 prostate
EKVX NSCLC = system: EKVX NSCLC
HCC-2998 colon = system: HCC-2998 colon
HCT-116 colon = system: HCT-116 colon
HCT-15 colon = system: HCT-15 colon
HL-60(TB) leukemia = system: HL-60(TB) leukemia
HOP-62 NSCLC = system: HOP-62 NSCLC
HS 578T breast = system: HS 578T breast
HT29 colon = system: HT29 colon
IGROV1 ovarian = system: IGROV1 ovarian
K-562 leukemia = system: K-562 leukemia
KM12 colon = system: KM12 colon
LOX IMVI melanoma = system: LOX IMVI melanoma
M14 melanoma = system: M14 melanoma
MALME-3M melanoma = system: MALME-3M melanoma
MCF7 breast = system: MCF7 breast
MDA-MB-231 breast = system: MDA-MB-231 breast
MDA-MB-435 = system: MDA-MB-435
MOLT-4 leukemia = system: MOLT-4 leukemia
NCI-H226 lung = system: NCI-H226 lung
NCI-H23 lung = system: NCI-H23 lung
NCI-H460 lung = system: NCI-H460 lung
NCI-H522 lung = system: NCI-H522 lung
NCI/ADR-RES ovarian = system: NCI/ADR-RES ovarian
OVCAR-3 ovarian = system: OVCAR-3 ovarian
OVCAR-4 ovarian = system: OVCAR-4 ovarian
OVCAR-5 ovarian = system: OVCAR-5 ovarian
OVCAR-8 ovarian = system: OVCAR-8 ovarian
PC-3 prostate = system: PC-3 prostate
RPMI-8226 leukemia = system: RPMI-8226 leukemia
RXF 393 renal = system: RXF 393 renal
SF-268 CNS = system: SF-268 CNS
SF-295 CNS = system: SF-295 CNS
SF-539 CNS = system: SF-539 CNS
SK-MEL-2 melanoma = system: SK-MEL-2 melanoma
SK-MEL-28 melanoma = system: SK-MEL-28 melanoma
SK-MEL-5 melanoma = system: SK-MEL-5 melanoma
SK-OV-3 ovarian = system: SK-OV-3 ovarian
SN12C renal = system: SN12C renal
SNB-19 CNS = system: SNB-19 CNS
SNB-75 CNS = system: SNB-75 CNS
SW-620 colon = system: SW-620 colon
T-47D breast = system: T-47D breast
TK-10 renal = system: TK-10 renal
U251 CNS = system: U251 CNS
UACC-257 melanoma = system: UACC-257 melanoma
UACC-62 melanoma = system: UACC-62 melanoma
UO-31 renal = system: UO-31 renal

## Clc1ccc2c(NCCN3CCN(c4ccnc(N5CCCC5)n4)CC3)ccnc2c1
786-0 renal
  GI50: 3.32 µM
  TGI: 11.1 µM
A498 renal
  GI50: 2.39 µM
  TGI: 8.51 µM
A549 NSCLC
  GI50: 4.23 µM
  TGI: 16.8 µM
ACHN renal
  GI50: 2.68 µM
  TGI: 8.01 µM
BT-549 breast
  GI50: 5.63 µM
  TGI: 19.4 µM
CAKI-1 renal
  GI50: 2.69 µM
  TGI: 10.3 µM
CCRF-CEM leukemia
  GI50: 3.65 µM
  TGI: 32.3 µM
COLO 205 colon
  GI50: 1.63 µM
  TGI: 3.59 µM
DU-145 prostate
  GI50: 5.71 µM
  TGI: 20.3 µM
EKVX NSCLC
  GI50: 10.2 µM
  TGI: 24.4 µM
HCC-2998 colon
  GI50: 1.94 µM
  TGI: 4.08 µM
HCT-116 colon
  GI50: 2.51 µM
  TGI: 10.4 µM
HCT-15 colon
  GI50: 2.1 µM
  TGI: 7.57 µM
HL-60(TB) leukemia
  GI50: 2.37 µM
  TGI: 6.25 µM
HOP-62 NSCLC
  GI50: 3.34 µM
  TGI: 16.2 µM
HS 578T breast
  GI50: 3.54 µM
  TGI: 19.8 µM
HT29 colon
  GI50: 1.34 µM
  TGI: 12.2 µM
IGROV1 ovarian
  GI50: 4.48 µM
  TGI: 23.7 µM
K-562 leukemia
  GI50: 1.47 µM
  TGI: 9.76 µM
KM12 colon
  GI50: 4.02 µM
  TGI: 17.4 µM
LOX IMVI melanoma
  GI50: 1.72 µM
  TGI: 3.55 µM
M14 melanoma
  GI50: 1.91 µM
  TGI: 3.61 µM
MALME-3M melanoma
  GI50: 1.91 µM
  TGI: 3.74 µM
MCF7 breast
  GI50: 1.96 µM
  TGI: 8.04 µM
MDA-MB-231 breast
  GI50: 2.06 µM
  TGI: 5.89 µM
MDA-MB-435
  GI50: 1.96 µM
  TGI: 4.54 µM
MOLT-4 leukemia
  GI50: 3.58 µM
  TGI: 38.2 µM
NCI-H226 lung
  GI50: 21.8 µM
  TGI: 41 µM
NCI-H23 lung
  GI50: 6.88 µM
  TGI: 22.7 µM
NCI-H460 lung
  GI50: 3.25 µM
  TGI: 10.1 µM
NCI-H522 lung
  GI50: 3.27 µM
  TGI: 11.1 µM
NCI/ADR-RES ovarian
  GI50: 4.12 µM
  TGI: 18.1 µM
OVCAR-3 ovarian
  GI50: 5.3 µM
  TGI: 21.2 µM
OVCAR-4 ovarian
  GI50: 3.87 µM
  TGI: 28.2 µM
OVCAR-5 ovarian
  GI50: 5.1 µM
  TGI: 21.4 µM
OVCAR-8 ovarian
  GI50: 4.39 µM
  TGI: 18.5 µM
PC-3 prostate
  GI50: 5.97 µM
  TGI: 20.8 µM
RPMI-8226 leukemia
  GI50: 2.48 µM
  TGI: 7.08 µM
RXF 393 renal
  GI50: 1.42 µM
  TGI: 3.93 µM
SF-268 CNS
  GI50: 2.73 µM
  TGI: 11.5 µM
SF-295 CNS
  GI50: 2.37 µM
  TGI: 5.44 µM
SF-539 CNS
  GI50: 1.73 µM
  TGI: 3.67 µM
SK-MEL-2 melanoma
  GI50: 2.61 µM
  TGI: 6.77 µM
SK-MEL-28 melanoma
  GI50: 1.77 µM
  TGI: 3.66 µM
SK-MEL-5 melanoma
  GI50: 1.79 µM
  TGI: 3.19 µM
SK-OV-3 ovarian
  GI50: 11.8 µM
  TGI: 34.2 µM
SN12C renal
  GI50: 4.86 µM
  TGI: 19.1 µM
SNB-19 CNS
  GI50: 7.06 µM
  TGI: 28.7 µM
SNB-75 CNS
  GI50: 1.76 µM
  TGI: 7.62 µM
SW-620 colon
  GI50: 2.05 µM
  TGI: 4.31 µM
T-47D breast
  GI50: 2.01 µM
  TGI: 5.59 µM
TK-10 renal
  GI50: 3.9 µM
  TGI: 21.3 µM
U251 CNS
  GI50: 3.09 µM
  TGI: 10.1 µM
UACC-257 melanoma
  GI50: 2.29 µM
  TGI: 4.35 µM
UACC-62 melanoma
  GI50: 2.13 µM
  TGI: 4.51 µM
UO-31 renal
  GI50: 1.82 µM
  TGI: 4.47 µM
